Results: patent US20050063998A1, “Oral solution containing galantamine and a sweetening agent” (priority 1999, published 2005)
“Also recorded” adds a separate entry of the source. Where a name gives a salt, the structure may show the parent alone.

Experiment: Stability of a galantamine hydrobromide aqueous solution as a function of pH (HPLC, degradation products)
Format: physicochemical
Details: 10 mg/ml aqueous solution; neutral (water pH 5.2); 80° C.; storage 24 hours
Method: (c) Stability of a Galantamine Hydrobromide Aqueous Solution as a Function of pH
A galantamine hydrobromide 10 mg/ml aqueous solution was stored in acid, neutral and alkaline conditions at 80° C. for 1 up to 24 hours. After storage, the solutions were analyzed using HPLC for the presence of degradation products.

In the case of `COc1ccc2c3c1O[C@H]1C[C@@H](O)C=C[C@@]31CCN(C)C2` [Galantamine hydrobromide, [4aS-(4aα, 6β, 8aR*)]-4a, 5,9,10,11,12-hexa-hydro-3-methoxy-11-methyl-6H-benzofuro[3a,3,2-ef][2]benzazepin-6-ol], the Degradation compounds was “remained stable; also recorded: No degradation detected”.
